Measurements: patent US4369120A, “Refrigeration liquid with leak indicator and process of using same” (priority 1981, dated 1983)

Experiments:
[1] = Sealed tube test of stability of dyes in refrigerant/refrigeration oil with metal coupons; type: physicochemical; conditions: for Stability, Mean Life: Table I, sealed tube data in R-12 at 350° F.; for stability in the sealed tube test (in words): 350° F., Table I dyes
Procedure: By reference to Table I below it can be appreciated that such ortho substitution has a remarkably beneficial effect on the stability of the dyes in the accelerated sealed tube test used for evaluation. The first three dyes listed, embodying the principles of this invention, routinely withstand in excess of twenty days in the sealed tube test at 350° F. (176.7° C.), equivalent to many years of normal use in a refrigeration system.
The sealed tube test serves as a method of evaluating in an accelerated manner interactions of materials found in a refrigeration system.
Glass tubes and all metal test coupons are scrupulously cleaned. Test refrigerants are distilled to minimize moisture contamination. Moisture is removed from the refrigeration test oil "Suniso" 3GS by subjecting the oil to a vacuum with slight stirring and heating. Ratios of refrigerant/refrigerant oil range from 1:1 to 1:2 by weight.
Refrigerant oil and representative metal coupons of copper #10AWG wire, Swedish valve stock steel, and aluminum metal sheet are placed in a glass tube along with the subject test dye material (0.25-1.0% wt/wt) dissolved in the refrigerant oil. Like samples without the subject dye are analyzed as controls.
The tube and its contents are chilled in a liquid nitrogen bath while the refrigerant is condensed into the tube via a calibrated manometer. The tube is sealed under a vacuum of at least 0.1 torr.
Glass tubes and contents are subjected to uniform heating in a bored aluminum block placed in a temperature-programmed oven.
The oven temperatures used vary according to the test refrigerant, as indicated:
The test is run for one of the following time periods: 5, 14, 21, 30 or 60 days.
The tube contents may be evaluated by several methods:
of these methods, the visual examination is the most rapid and the only qualitative method. Any color change in the subject dye coloration is noted when compared to a control sample.
The quantitative methods involve analysis for decomposition products of chloride as hydrochloric acid or organic products by gas chromatography, infrared spectroscopy, or mass spectroscopy. However, visual inspection and gas chromatography are widely used, and they were selected as standardization procedures for evaluation of sealed tube contents.
R-12 is chemically one of the more reactive refrigerants; thus, short term tests with refrigeration liquids containing this refrigerant admixed with a mineral oil yield the most rapid results. R-22 and R-502 are also used but the decomposition products are more difficult to analyze by gas chromatography. Ultimately the test material must pass interactions involving any of these refrigerants. The visual method can be used empirically on a pass-fail basis. As verified experimentally, visual results are considered as valid as instrumental methods.

[2] = Solubility of dyes in refrigeration oils; conditions: Table I, Suniso 3GS refrigeration oil
Procedure: Manufacturers of refrigeration equipment generally demand that any refrigeration liquid satisfactorily pass such a sealed tube test before they approve the liquid for use in their equipment. In addition, the solubility of the various dyes in oil and in refrigerant were determined.
Solubility of various dyes in various refrigeration oils was carefully determined according to the following standardized procedure. An excess of the subject dye was added to a given weight (e.g., 100 g) of refrigerant oil. The mixture was stirred for one-half hour with mild heating, whereupon it was cooled to room temperature (about 21° C.) and transferred to a centrifuge tube. The mixture was centrifuged approximately 15 minutes at 1000 rpm. A sample of the supernatant liquid was decanted (1.00 g±0.01 g) and diluted to 100 ml volume with methylene chloride. Aliquot portions were taken and read against the principal absorption peaks by visible light spectroscopy. Wt/wt percentage concentrations were then calculated from proper standard curves.

Row | SMILES | Stability, Mean Life [1] [days] | Oil Sol. In 3GS [2] [%] | stability in the sealed tube test (in words) [1]
1 | CCCCCCCCCCCCNc1ccc(NCCCCCCCCCCCC)c2c1C(=O)c1ccccc1C2=O [Dye No. 14-32, 1,4-Bis(n-dodecylamino)] | 2.3 | 0.5 | 
2 | CN(c1ccccc1)c1ccc(N(C)c2ccccc2)c2c1C(=O)c1ccccc1C2=O [Dye No. 16-10, 1,4-Bis(N--methylanilino)] | 7.0 | 0.1 | very unstable
3 | O=C1c2ccccc2C(=O)c2c(NCc3ccccc3)ccc(NCc3ccccc3)c21 [Dye No. 10-19, 1,4-Bis(benzylamino)] | 4.5 | < 0.25 | 
4 | CC(Nc1ccc(NC(C)c2ccccc2)c2c1C(=O)c1ccccc1C2=O)c1ccccc1 (stereo not drawn) [Dye No. 11-17, 1,4-Bis(α-methylbenzylamino)] | 3.5 | 1.0 | 
5 | O=C1c2ccccc2C(=O)c2c(Nc3ccccc3C(F)(F)F)ccc(Nc3ccccc3C(F)(F)F)c21 [Dye No. 23-24, 1,4-Bis(2-trifluoro-methylanilino)] | 6.5 | 0.5 | very unstable
6 | O=C1c2ccccc2C(=O)c2c(Nc3ccc(C4CCCCC4)cc3)ccc(Nc3ccc(C4CCCCC4)cc3)c21 [Dye No. 5-5, 1,4-Bis(4-cyclohexylanilino)] | 9.7 | 0.1 | 
7 | CCCCCCCCNc1ccc(NCCCCCCCC)c2c1C(=O)c1ccccc1C2=O [Dye No. 13-27, 1,4-Bis(n-octylamino)] | 4.4 | 0.5 | 
8 | CCN(c1ccccc1)c1ccc(N(CC)c2ccccc2)c2c1C(=O)c1ccccc1C2=O [Dye No. 17-14, 1,4-Bis(N--ethylanilino)] | 4.5 | 1.0 | very unstable
9 | O=C1c2ccccc2C(=O)c2c(NC(c3ccccc3)c3ccccc3)ccc(NC(c3ccccc3)c3ccccc3)c21 [Dye No. 12-20, 1,4-Bis(diphenylmethylamino)] | 2.0 | < 0.05 | 
10 | CCCCc1ccc(Nc2cc(C)c(Nc3ccc(CCCC)cc3)c3c2C(=O)c2ccccc2C3=O)cc1 [Dye No. 22-16, 1,4-Bis(4-n-butylanilino)-2-methyl] | 3.0 | 1.0 | very unstable
11 | CCCCc1ccc(Nc2ccc(Nc3ccc(C)cc3)c3c2C(=O)c2ccccc2C3=O)cc1 [Dye No. 21-11, 1-(4-n-butylanilino)-4-(p-toluidino)] | 7.7 | 0.1 | 
12 | CCCCc1ccc(N(C)c2ccc(N(C)c3ccc(CCCC)cc3)c3c2C(=O)c2ccccc2C3=O)cc1 [Dye No. 18-6, 1,4-Bis(N-methyl-4-n-butylanilino)anthraquinone] | 4.3 | 0.1 | very unstable
13 | CCCCOc1ccc(Nc2ccc(Nc3ccc(OCCCC)cc3)c3c2C(=O)c2ccccc2C3=O)cc1 [Dye No. 8-2, 1,4-Bis(4-n-butoxyanilino)] | 8.6 | 0.02 | 
14 | CC(C)(C)c1ccc(Nc2ccc(Nc3ccc(C(C)(C)C)cc3)c3c2C(=O)c2ccccc2C3=O)cc1 [Dye No. 6-21, 1,4-Bis(4-t-butylanilino)] | 8.7 | 1.0 | 
15 | CCOc1ccc(Nc2ccc(Nc3ccc(OCC)cc3)c3c2C(=O)c2ccccc2C3=O)cc1 [Dye No. 7-3, 1,4-Bis(4-ethoxyanilino)] | 8.5 | < 1.0 | 
16 | CCOc1ccc(N(C)c2ccc(N(C)c3ccc(OCC)cc3)c3c2C(=O)c2ccccc2C3=O)cc1 [Dye No. 19-9, 1,4-Bis(N--methyl-4-ethoxyanilino)] | 6.0 | 0.1 | very unstable
17 | O=C1c2ccccc2C(=O)c2c(NCCc3ccccc3)ccc(NCCc3ccccc3)c21 [Dye No. 9-8, 1,4-Bis(β-phenethylamino)] | 4.4 | 0.1 | 
18 | CCCCc1ccc(Nc2ccc(Nc3ccc(CCCC)cc3)c3c2C(=O)c2ccccc2C3=O)cc1 [Dye No. 4-1, 1,4-Bis(4-n-butylanilino)] | 9.5 | < 1.0 | 
19 | CC(C)(C)CNc1ccc(NCC(C)(C)C)c2c1C(=O)c1ccccc1C2=O [Dye No. 15-13, 1,4-Bis(neopentylamino)] | 3.4 | < 1.0 | very unstable
20 | CCCCOc1ccc(N(C)c2ccc(N(C)c3ccc(OCCCC)cc3)c3c2C(=O)c2ccccc2C3=O)cc1 [Dye No. 20-12, 1,4-Bis(N--methyl-4-n-butoxyanilino)] | 4.0 | 0.1 | very unstable
